Measured values from patent US11096925B2, “Indole derivatives for biofilm disruption and inhibition” (LIFE MATTERS LTD., priority 2015, dated 2021).
Entries after “also recorded” stand apart in the source; their conditions may differ.

What was measured:
P. aeruginosa PA01 [1] = assay: Biofilm formation under static conditions, CLSM with Live/Dead staining; format: cell-based, Pseudomonas aeruginosa; details: for density of attached cells (biofilm) / mortality of the bacterial cells: 50 μM; for density of attached cells (biofilm): 18 h static incubation at 37° C.; for mortality of the bacterial cells: compared with DMSO control
Protocol: (§1) FIGS. 1A-B show prevention of biofilm formation. Confocal laser scanning micrographs (CLSM) of P. aeruginosa PA01 (A) and A. baumannii (B) formed in glass-bottomed 96 well plates after 18 h of static incubation at 37° C. Cultures were grown in the presence of either 50 μM DIV or NN, or an equivalent amount of DMSO for control. Biofilms were stained using the Live/Dead bacterial viability kit. Live, dead and total bio-volumes (μm^3/μm^2) were calculated based on image analysis and data from the IMARIS software. Bars indicate standard deviations for triplicate sets of experiments.
(§2) FIGS. 5A-D show biofilm attenuation of the pathogens P. stuartii (A), S. marcescens (B), A. baumannii (C) and P. aeruginosa PA01 (D). Cultures were grown in the presence of either 50 μM DIM or an equivalent amount of DMSO for control. Biofilms were stained with the LIVE/DEAD bacterial viability kit. For each species and per treatment, live, dead and total bio-volumes (μm^3/μm^2) were calculated based on image analysis and data from the IMARIS software, and % biofilm inhibition was calculated based on live bio-volumes. The results are the average values of analysis of at least three micrographs.
(§3) Bioflims of P. aeruginosa and A. baumanii that were developed on glass slides were determined using confocal scanning laser microscopy (CSLM) (FIG. 1). Accordingly, the density of the biofilms prior to and following treatment by NN and DIV was measured.
(§4) The current study investigated the influence of DIM on the biofilm formation process and on the destruction of existing biofilms of several pathogenic gram-negative bacterial strains.

A. baumannii [2] = assay: as above; format: cell-based, Acinetobacter baumannii; details: for density of attached cells (biofilm) / mortality of the bacterial cells: 50 μM; for density of attached cells (biofilm): 18 h static incubation at 37° C.; for mortality of the bacterial cells: compared with DMSO control
Protocol: as §1, §2, §3, §4

[3] = system: P. aeruginosa PA01 mature biofilm; assay: Destruction of mature biofilm in flow cell, CLSM; format: cell-based, Pseudomonas aeruginosa; details: 72 h biofilm, then 48 h treatment, 50 μM compound, 20 μg/ml tobramycin
Protocol: FIG. 2 depicts destruction of P. aeruginosa PA01 mature biofilm; biofilm formed in a flow cell after 72 h of incubation at 37° C. and 48 h more in the presence of 50 μM NN, 20 μg/ml Tobramycin, and 50 μM NN with 20 μg/ml tobramycin. Biofilms were stained with Live/Dead bacterial viability kit. Quantification of BioVolume; Live, dead and total bio-volumes (μm^3/μm^2) calculated based on image analysis and data from the IMARIS software. The images were acquired from three different areas in each treatment.
FIG. 6. depicts destruction of mature, differentiated biofilm of P. aeruginosa PA01. Statistical analysis of CSLM images of biofilm formed in a flow system after 120 h, and with supplementation of 50 μM DIM, 20 μg/ml Tobramycin and a combined treatment of 50 μM DIM with 20 μg/ml Tobramycin. Biofilms were stained with the LIVE/DEAD bacterial viability kit. Quantification of bio-volume: live, dead and total bio-volumes (μm^3/μm^2) were calculated based on image analysis and data from the IMARIS software.
Dynamic growth conditions in flow cell systems are considered to be representative of the real conditions in humeral tissues, where the pathogen thrives in enriched settings. […] Once the efficiency of the new compounds was tested, we proceeded to assess the efficacy of adding antibiotic treatment to the novel compounds to eradicate biofilm (FIG. 2). […] On the other hand, when treated by both the antibiotic and the NN, the biofilm was eradicated and the bacterial cells died.
To investigate the combined destructive effect of the biofilm inhibitor compound and an antibiotic, P. aeruginosa PA01 was cultured for 72 h in the continuous flow system until a mature biofilm had been established Immediately after its establishment, the biofilm was challenged with DIM and/or the antibiotic tobramycin, the known activity of which is protein synthesis inhibition (FIG. 6).

P. aeruginosa PA01 [4] = assay: Virulence factor production, spectrophotometry of cell-free culture; format: cell-based, Pseudomonas aeruginosa; details: for virulence factors production: P. aeruginosa PA01 grown with 50 μM compound
Protocol: (§5) FIGS. 3A-B show effect on, P. aeruginosa PA01 pathogenesis. (A) Inhibition of virulence factors production in P. aeruginosa PA01, which were grown in the presence of 50 μM NN or DIV. Tetracycline is used as positive control. Results are based on OD measurements distinctive to each factor and normalized to bacterial growth at OD600 nm. Error bars represent SD of three independent repetitions. (B) C. elegans killing assay assed by SYTOX Orange stain within 24 h.
Results are based on OD measurements specific to each factor and normalized to the growth OD of 600 nm. Bars indicate standard deviations for triplicate sets of experiments.
(§6) Driven by an arsenal of virulence factors added to the biofilm mode of growth, P. aeruginosa PA01 pathogenesis depends on the type of the infection. Therefore, both compounds were tested for their abilities to suppress prominent virulence determinants (FIG. 3A). […] Measuring nematode survivorship following exposure to P. aeruginosa in the absence and presence of modulating compounds, therefore, provides a good model for assessing the effectiveness of the novel compounds on the pathogenesis of the bacteria.
The basis of P. aeruginosa pathogenicity is an arsenal of virulence determinants designed for survival and proliferation in the host that enable bacterial invasion and the subsequent establishment of infection. The success of this microorganism is largely due to its ability to form intractable biofilms and to produce myriad virulence factors controlled by a quorum-sensing (QS) system.

A. baumannii [5] = assay: Biofilm formation in dynamic flow-cell system; format: cell-based, Acinetobacter baumannii
Source text: (§7) In addition, we tested the anti-biofilm properties of the well-studied anti-cancer compound 3,3′-Diindolylmethane (DIM), a metabolite found in cruciferous vegetables. Inhibition of biofilm establishment by DIM was investigated with different clinical pathogens under static conditions. Biofilm formation by A. baumannii and P. aeruginosa was further tested in a dynamic flow-cell system, in which biofilm inhibition levels of 86% and 76% were obtained, respectively. […] Further examination of the hypothesized synergistic effect obtained by combining conventional antibiotics with the DIM compound may offer a promising strategy for the eradication of biofilm complexes.

P. aeruginosa = assay: Biofilm formation in dynamic flow-cell system; format: cell-based, Pseudomonas aeruginosa
Source text: as §7

S. marcescens = assay: Biofilm formation under static conditions, CLSM; format: cell-based, Serratia marcescens; details: 50 μM DIM
Protocol: as §2, §4

P. stuartii = assay: Biofilm formation under static conditions, CLSM; format: cell-based, Providencia stuartii; details: 50 μM DIM
Protocol: as §2, §4

Erwinia carotovora = assay: Biofilm formation by plant-associated bacteria, static 96 well plates, CLSM; format: cell-based; details: 50 μM, 18 h static
Protocol: Biofilm formed in glass-bottomed 96 well plates after 18 h of static incubation at 37° C. was investigated by confocal laser scanning micrographs (CLSM). Cultures were grown in the presence of either 50 μM DIM or NN, or an equivalent amount of DMSO for control. Biofilms were stained using the Live/Dead bacterial viability kit. Live, dead and total bio-volumes (μm^3/μm^2) were calculated based on image analysis and data from the IMARIS software.
Erwinia carotovora was cultured in glass-bottomed 96 well plates for 18 h in static conditions. The growth medium was provided with either 50 μM DIM or NN and the resulted biofilms was investigated using CSLM.

P. larvae = details: agar diffusion method (Brenda et al., 2010); cited from earlier work
[6] = system: Caenorhabditis elegans infected by Pseudomonas aeruginosa; assay: C. elegans killing assay; format: in vivo; details: SYTOX Orange stain within 24 h
Protocol: as §5, §6

[7] = system: A549 Human Lung Cell line infected by P. aeruginosa; assay: Cytotoxicity and apoptosis of A549 cells infected with pre-treated bacteria, calcein staining; format: cell-based; details: bacteria pre-treated with compound, 24 h
Protocol: FIGS. 4A-B show reduced adhesion and virulence of P. aeruginosa PA01 in human A549 lung cells model. (A) Cytotoxicity effect and apoptosis of A549 cells by P. aeruginosa PA01 pre-treated with DIV or NN during 24 h. The infection progress was monitored by calcein staining using Operetta screening system. All the experiments were performed in triplicates. (B) Adhesion of P. aeruginosa PA01 (5×10^7 CFU/ml) pre-treated with DIV or NN to A549 cells for 1 hr of incubation. Excess bacteria were removed and the released cells were plated followed CFU counts determination.
In order to test the possible effects of these compounds on higher organisms, we tested NN and DIV on A549 Human Lung Cell line infected by P. aeruginosa. Additional tests were carried out for NN and DIV to assess the effect of this compound to enhance the survival of A549 cells during infection with P. aeruginosa PA01. […] Due the fact that adherence to a humeral cell is considered a crucial step in the bacterial infection initiation process, P. aeruginosa PA01 pre-treated with DIV or NN was tested for its adherence potency to lung epithelial cells A549.

SMILES	destruction of mature biofilm [3]	biofilm formation / density of attached cells (Erwinia carotovora)	density of attached cells (biofilm) (P. aeruginosa PA01 [1])	mortality of the bacterial cells (P. aeruginosa PA01 [1])	density of attached cells (biofilm) (A. baumannii [2])	mortality of the bacterial cells (A. baumannii [2])	virulence factors production (P. aeruginosa PA01 [4])	survivorship of C. elegans following exposure to P. aeruginosa [6]	cytotoxicity effect and apoptosis of A549 cells by pre-treated P. aeruginosa PA01 [7]	other results
c1ccc2c(Cc3c[nH]c4ccccc34)c[nH]c2c1 [DIM, di(1H-indol-3-yl)methane]	destruction of existing, stable biofilm	prevents biofilm formation								biofilm formation compared to control (P. aeruginosa PA01 [1]; 50 μM DIM, static): substantially reduced biofilms; biofilm formation compared to control (A. baumannii [2]; 50 μM DIM, static): substantially reduced biofilms; reduction in chitinase production (P. aeruginosa PA01 [4]; 50 μM DIM): 35%; reduction in elastase (P. aeruginosa PA01 [4]; 50 μM DIM): 19%; reduction in protease (P. aeruginosa PA01 [4]; 50 μM DIM): 10%; reduction in pyocyanin (P. aeruginosa PA01 [4]; 50 μM DIM): 21%; reduction in pyoverdine (P. aeruginosa PA01 [4]; 50 μM DIM): 20%; biofilm inhibition levels (A. baumannii [5]): 86%; biofilm inhibition levels (P. aeruginosa): 76%; biofilm formation compared to control (S. marcescens): substantially reduced biofilms; biofilm formation compared to control (P. stuartii): substantially reduced biofilms; antibiotic activity against P. larvae (P. larvae): antibiotic activity
c1ccc2c(c1)CC(c1cc3ccccc3[nH]1)N2 (centres unmarked) [DIV, 2-(indolin-2-yl)-1H-indole]			reduction of density of attached cells	negligible mortality	smaller effects	negligible mortality	reduced significantly	pathogenesis of P. aeruginosa is reduced	suspended the cytotoxicity effect and apoptosis killing	
c1ccc2c(c1)ccn2-n1ccc2ccccc21 [NN, 1,1′-Biindole]	reduced but not eradicated	prevents biofilm formation	reduction of density of attached cells; also recorded: most effective	negligible mortality	smaller effects	negligible mortality	reduced significantly	significantly increased survivorship	suspended the cytotoxicity effect and apoptosis killing	
NC[C@H]1O[C@H](O[C@H]2[C@H](O)[C@@H](O[C@H]3O[C@H](CO)[C@@H](O)[C@H](N)[C@H]3O)[C@H](N)C[C@@H]2N)[C@H](N)C[C@@H]1O [tobramycin, Tobramycin, reference compound]	dense biofilm similar to that of the control									destruction of mature biofilm ([3]; listed as antibiotic): little loss of biofilm
